# Measured values published in patent publication US20200261421A1, “HETEROCYCLIC COMPOUNDS AS HIV PROTEASE INHIBITORS” (Merck Sharp & Dohme Corp., priority 2016, published 2020).
# Target: T1, wild-type HIV-1 protease (Human immunodeficiency virus type 1 group M subtype B, UniProt P04585)
# T1 construct: Escherichia coli expressed wild-type HIV-1 protease protein; made in house; host or cells: Escherichia coli
# Experiment: Assay for Inhibition of Microbial Expressed HIV Protease
# Type: biochemical
# Conditions: Escherichia coli expressed wild-type HIV-1 protease, peptide substrate cleavage; mean of at least two independent experiments
# Description: Inhibition of Escherichia coli expressed wild-type HIV-1 protease protein was carried out with a peptide substrate [Val-Ser-Gln-Asn-Wnaphtyl)Ala-Pro-Ile-Val]. The inhibitor compound was preincubated with HIV-1 protease enzyme in assay buffer (50 mM sodium acetate, pH 5.5, 100 mM NaCl, and 0.1% BSA) for 30 minutes at room temperature. Peptide substrate was added to 400 μM in a total volume of 20 μL containing 20 pM HIV-1 protease (final) after which the reaction was incubated for 1 hour at 30° C. The reaction was quenched by the addition of formic acid and HIV protease inhibitor indinavir to 0.012% and 150 nM final concentrations, respectively. Product formation was determined after separation of product and substrate on a ZORBAX Eclipse XDB-C18 column (Aligent Technologies, Santa Clara, Calif., USA) connected to an API 4000™ mass spectrometer (AB Sciex, Pte. Ltd., Concord Ontario, Canada) with multiple reaction monitoring (transitions were 644.5/428.9 and 615.4/422.2 (M1/M3) for product and indinavir respectively). The extent of inhibition of the reaction was determined from the peak area of the products. Analysis of the products, independently synthesized, provided quantitation standards and confirmation of the product composition. […] Ic50's refer to the 50% inhibition of the cleavage of a peptide substrate by hiv protease.
# Data shown in the table reflects the mean of at least two independent experiments.
row,SMILES,IC50 [nM]
1,"CN(Cc1cccc(F)c1)C(=O)c1cccc(CN2C(=N)NC(c3ccc(F)cc3)(c3ccc(F)cc3)C2=O)c1 [Example 68, 3-{[4,4-bis(4-fluorophenyl)-2-imino-5-oxoimidazolidin-1-yl]methyl}-N-(3-fluorobenzyl)-N-methylbenzamide]",96.6
2,"CN(Cc1ccccc1S(C)(=O)=O)C(=O)c1cc(CN2C(=N)NC(c3ccccc3)(c3ccccc3)C2=O)ccc1C(F)(F)F [Example 3, 5-[(2-imino-5-oxo-4,4-diphenylimidazolidin-1-yl)methyl]-N-methyl-N-[2-(methylsulfonyl)benzyl]-2-(trifluoromethyl)benzamide]",22.3
3,"CC(C)CC1(c2ccccc2)NC(=N)N(Cc2cc(C(=O)N(C)Cc3ccc(Cl)cc3)ccn2)C1=O (stereo not shown) [Example 91, N-(4-chlorobenzyl)-2-{[2-imino-4-(2-methylpropyl)-5-oxo-4-phenylimidazolidin-1-yl]methyl}-N-methylpyridine-4-carboxamide]",34.1
4,"CC(C)CC1(CC(C)C)NC(=N)N([C@H](C)c2cccc(C(=O)N(C)Cc3ccc(F)cc3)c2)C1=O [Example 70, N-(4-fluorobenzyl)-3-{(1R)-1-[2-imino-4,4-bis(2-methylpropyl)-5_ oxoimidazolidin-1-yl]ethyl}-N-methylbenzamide]",99.1
5,"CN(Cc1ccccc1Cl)C(=O)c1cccc(CN2C(=N)NC(c3ccc(F)cc3)(c3ccc(F)cc3)C2=O)c1 [Example 66, 3-{[4,4-bis(4-fluorophenyl)-2-imino-5-oxoimidazolidin-1-yl]methyl}-N-(2-chlorobenzyl)-N-methylbenzamide]",90.5
6,"COc1ccccc1CN(C)C(=O)c1cccc(CN2C(=N)NC(c3ccc(F)cc3)(c3ccc(F)cc3)C2=O)c1 [Example 61, 3-{[4,4-bis(4-fluorophenyl)-2-imino-5-oxoimidazolidin-1-yl]methyl}-N-(2-methoxybenzyl)-N-methylbenzamide]",76.7
7,"[2H]C([2H])([2H])N(C(=O)c1cccc(CN2C(=N)NC(c3ccc(F)cc3)(c3ccc(F)cc3)C2=O)c1)[C@H](C)c1ccc(F)cc1 [Example 50, 3-{[4,4-bis(4-fluorophenyl)-2-imino-5-oxoimidazolidin-1-yl]methyl}-N-[(1R)-1-(4-fluorophenyl)ethyl]-N(~2~H_3_)methylbenzamide]",45.1
8,"CN(C)C(=O)c1cccc(CN2C(=N)NC(c3ccccc3)(c3ccc(-c4ccccc4)cc3)C2=O)c1 (stereo not shown) [Example 45, 3-[(4-biphenyl-4-yl-2-imino-5-oxo-4-phenylimidazolidin-1-yl)methyl]-N,N-dimethylbenzamide]",30.3
9,"N=C1NC(c2ccccc2)(c2ccccc2)C(=O)N1Cc1ccc(Cl)c(C(=O)NCc2cnccn2)c1 [Example 73, 2-chloro-5-[(2-imino-5-oxo-4,4-diphenylimidazolidin-1-yl)methyl]-N-(pyrazin-2-ylmethyl)benzamide]",11
10,"CN(Cc1ccc(F)cc1)C(=O)c1cncc(CN2C(=N)NC(c3ccc(F)cc3)(c3ccc(F)cc3)C2=O)c1 [Example 80, 5-{[4,4-bis(4-fluorophenyl)-2-imino-5-oxoimidazolidin-1-yl]methyl}-N-(4-fluorobenzyl)-N-methylpyridine-3-carboxamide]",15.4
11,"CC(C)CC1(c2ccccc2)NC(=N)N(Cc2ccc(Cl)c(C(=O)NCc3cnccn3)c2)C1=O (stereo not shown) [Example 75, 2-chloro-5-{[2-imino-4-(2-methylpropyl)-5-oxo-4-phenylimidazolidin-1-yl]methyl}-N-(pyrazin-2-ylmethyl)benzamide]",31.3
12,"CC(C)CCC1(c2cccc(F)c2)NC(=N)N(Cc2cccc(C(=O)N(C)Cc3ccc(Cl)cc3)c2)C1=O (stereo not shown) [Example 49, N-(4-chlorobenzyl)-3-{[4-(3-fluorophenyl)-2-imino-4-(3-methylbutyl)-5-oxoimidazolidin-1-yl]methyl}-N-methylbenzamide]",43.5
13,"CC(C)CCC1(c2ccccc2)NC(=N)N(Cc2cc(C(=O)N(C)Cc3ccc(C#N)cc3)ccn2)C1=O (stereo not shown) [Example 88, N-(4-cyanobenzyl)-2-{[2-imino-4-(3-methylbutyl)-5-oxo-4-phenylimidazolidin-1-yl]methyl}-N-methylpyridine-4-carboxamide]",17.1
14,"CN(Cc1ccnc(Cl)c1)C(=O)c1cccc(CN2C(=N)NC(c3ccc(F)cc3)(c3ccc(F)cc3)C2=O)c1 [Example 38, 3-{[4,4-bis(4-fluorophenyl)-2-imino-5-oxoimidazolidin-1-yl]methyl}-N-[(2-chloropyridin-4-yl)methyl]-N-methylbenzamide]",23.8
15,"CN(Cc1ccc(Cl)cn1)C(=O)c1cccc(CN2C(=N)NC(c3ccc(F)cc3)(c3ccc(F)cc3)C2=O)c1 [Example 21, 3-{[4,4-bis(4-fluorophenyl)-2-imino-5-oxoimidazolidin-1-yl]methyl}-N-[(5-chloropyridin-2-yl)methyl]-N-methylbenzamide]",12.7
16,"CN(Cc1ccccc1C(F)(F)F)C(=O)c1cccc(CN2C(=N)NC(c3ccc(F)cc3)(c3ccc(F)cc3)C2=O)c1 [Example 46, 3-{[4,4-bis(4-fluorophenyl)-2-imino-5-oxoimidazolidin-1-yl]methyl}-N-methyl-N-[2-(trifluoromethyl)-benzyl]benzamide]",31.1
17,"N#Cc1ccc(CNC(=O)c2cccc(CN3C(=N)NC(c4ccc(F)cc4)(c4ccc(F)cc4)C3=O)c2)cc1 [Example 67, 3-{[4,4-bis(4-fluorophenyl)-2-imino-5-oxoimidazolidin-1-yl]methyl}-N-(4-cyanobenzyl)benzamide]",95.2
18,"CC(C)CCC1(c2ccccc2)NC(=N)N(Cc2cccc(C(=O)N(C)[C@H](C)c3ccc(F)cc3)c2)C1=O (stereo partly drawn) [Example 24, N-[(1R)-1-(4-fluorophenyl)ethyl]-3-{[2-imino-4-(3-methylbutyl)-5-oxo-4-phenylimidazolidin-1-yl]methyl}-N-methylbenzamide]",13.2
19,"CC(C)CCC1(c2ccccc2)NC(=N)N(Cc2cccc(C(=O)N(C)Cc3ccc(C#N)cc3)c2)C1=O (stereo not shown) [Example 14, N-(4-cyanobenzyl)-3-{[2-imino-4-(3-methylbutyl)-5-oxo-4-phenylimidazolidin-1-yl]methyl}-N-methylbenzamide]",7.35
20,"CN(Cc1ccc(Cl)cc1)C(=O)c1cccc(CN2C(=N)NC(c3ccc(F)cc3)(c3cccc(-c4cccc(C#N)c4)c3)C2=O)c1 (stereo not shown) [Example 64, N-(4-chlorobenzyl)-3-{[4-(3'-cyanobiphenyl-3-yl)-4-(4-fluorophenyl)-2-imino-5-oxoimidazolidin-1-yl]methyl}-N-methylbenzamide]",86.9
21,"CC(C)CCC1(c2ccccc2)NC(=N)N(Cc2cccc(C(=O)N(C)Cc3ccccc3S(C)(=O)=O)c2)C1=O (stereo not shown) [Example 29, 3-{[2-imino-4-(3-methylbutyl)-5-oxo-4-phenylimidazolidin-1-yl]methyl}-N-methyl-N-[2-(methylsulfonyl)-benzyl]benzamide]",17.8
22,"CC(C)CCC1(c2ccccc2)NC(=N)N(Cc2cccc(C(=O)N(C)Cc3ccc(F)cc3)c2)C1=O (stereo not shown) [Example 17, N-(4-fluorobenzyl)-3-{[2-imino-4-(3-methylbutyl)-5-oxo-4-phenylimidazolidin-1-yl]methyl}-N-methylbenzamide]",10.3
23,"CN(Cc1ccc(Cl)cc1)C(=O)c1cccc(CN2C(=N)NC(c3ccc(F)cc3)(c3cccc(C(N)=O)c3)C2=O)c1 (stereo not shown) [Example 19, 3-{[4-(3-carbamoylphenyl)-4-(4-fluorophenyl)-2-imino-5-oxoimidazolidin-1-yl]methyl}-N-(4-chlorobenzyl)-N-methylbenzamide]",11.6
24,"CC(C)CC[C@]1(c2ccccc2)NC(=N)N([C@H](C)c2cccc(C(=O)N(C)Cc3ccc(F)cc3)c2)C1=O [Example 15, N-(4-fluorobenzyl)-3-{(1R)-1-[2-imino-4-(3-methylbutyl)-5-oxo-4-phenylimidazolidin-1-yl]ethyl}-N-methylbenzamide]",9.11
25,"N=C1NC(c2ccccc2)(c2ccccc2)C(=O)N1Cc1ccc(C(F)(F)F)c(C(=O)NCc2ccc(OC(F)F)cc2)c1 [Example 12, N-[4-(difluoromethoxy)benzyl]-5-[(2-imino-5-oxo-4,4-diphenylimidazolidin-1-yl)methyl]-2-(trifluoromethyl)benzamide]",94.1
26,"CN(Cc1ccc(Cl)cc1)C(=O)c1ccnc(CN2C(=N)NC(c3ccc(F)cc3)(c3ccc(F)cc3)C2=O)c1 [Example 89, 2-{[4,4-bis(4-fluorophenyl)-2-imino-5-oxoimidazolidin-1-yl]methyl}-N-(4-chlorobenzyl)-N-methylpyridine-4-carboxamide]",18.9
27,"N#Cc1ccc(CNC(=O)c2cc(CN3C(=N)NC(c4ccc(F)cc4)(c4ccc(F)cc4)C3=O)ccc2C(F)(F)F)cc1 [Example 5, 5-{[4,4-bis(4-fluorophenyl)-2-imino-5-oxoimidazolidin-1-yl]methyl}-N-(4-cyanobenzyl)-2-(trifluoromethyl)benzamide]",43
28,"CN(Cc1ccc(F)cc1)C(=O)c1cccc(CN2C(=N)NC(c3ccccc3)(c3ccccc3)C2=O)c1 [Example 32, N-(4-fluorobenzyl)-3-[(2-imino-5-oxo-4,4-diphenylimidazolidin-1-yl)methyl]-N-methylbenzamide]",19.3
